# Reference: US20240262807A1, “COMPOUND USED AS BCR-ABL INHIBITOR” (CHIA TAI TIANQING PHARMACEUTICAL GROUP CO., LTD., priority 2021, published 2024)
# How the values were obtained:
# [1] = molecular target: T1, Ba/F3-BCR-ABL1-T315I-C3 cells (Homo sapiens, UniProt P00519, T315I, cells depend on it); assay: Inhibitory effect of compounds on proliferation of BCR-ABL T315I-transfected Ba/F3 cells (CCK-8); type: cell-based; details: 72 h with compound, CCK-8, 5% serum, read-out: IC50 (nM) Ba/F3-BCR-ABL1 T315I
# T1 construct: fused on or other part: P11274 (Breakpoint cluster region protein)
# Procedure: Ba/F3-BCR-ABL1-T315I-C3 cells in logarithmic growth phase and good cell condition were added to a centrifuge tube and centrifuged at 1000 rpm for 5 min in a low speed centrifuge. The supernatant was discarded, and 5 mL of complete medium (RPMI 1640 basic medium+10% FBS) was added using a pipette for cell resuspension. The cells were counted using a cell counter, diluted with complete medium to a cell density of 6×10^4 cells/mL, and an equivalent amount of RPMI 1640 basic medium was added to adjust the serum concentration to 5% and the cell density to 3×10^4 cells/mL for plate seeding. The cells were seeded on a 96-well plate at 100 μL/well using a multi-channel pipette and cultured in a cell incubator at 37° C. 5% CO2 and saturated humidity. After 24 h incubation, compounds were loaded using a nanoliter pipettor, 8 concentrations (1000 nM, 250 nM, 63 nM, 16 nM, 3.9 nM, 0.98 nM, 0.24 nM, 0.061 nM) were set for each compound, and 2 replicate wells were set for each concentration; cells with no compounds added were taken as a negative control, and a plating medium with no cells added was taken as a blank control. After 72 h. […] Inhibition rate (%)=(mean value of negative control group−mean value of experimental group)/(mean value of negative control group−mean value of blank group)×100%. A dose-response curve was fitted by four-parameter analysis, with the logarithm of compound concentration serving as abscissa and inhibition rate serving as ordinate, such that ICso was calculated.
# K562 cells = assay: Inhibitory effect of compounds on proliferation of K562 cells (CCK-8); type: cell-based; details: Homo sapiens, 72 h with compound, CCK-8, 5% serum
# Procedure: K562 cells in logarithmic growth phase and good cell condition were added to a centrifuge tube and centrifuged at 1000 rpm for 5 min in a low speed centrifuge. […] The cells were seeded on a 96-well plate at 100 µL/well using a multi-channel pipette and cultured in a cell incubator at 37° ° C. 5% CO2 and saturated humidity. […] Inhibition rate (%)=(mean value of negative control group−mean value of experimental group)/(mean value of negative control group−mean value of blank group)×100%. A dose-response curve was fitted by four-parameter analysis, with the logarithm of compound concentration serving as abscissa and inhibition rate serving as ordinate, such that IC50 was calculated.
SMILES,GI50 [1] [nM],IC50 (K562 cells) [nM]
Cn1ccc(-c2cc(C(=O)Nc3ccc(OC(F)(F)Cl)cc3)cnc2N2CC[C@H](Cl)C2)cc1=O [Compound 4],21,16
Cn1ccc(-c2cc(C(=O)Nc3ccc(OC(F)(F)Cl)cc3)cnc2N2CC3(COC3)C2)cc1=O [Compound 5],28,16
O=C(Nc1ccc(OC(F)(F)Cl)cc1)c1cnc(N2CCOCC2)c(-c2ccn(CCO)c(=O)c2)c1 [Compound 8],23,52
Cn1ccc(-c2cc(C(=O)Nc3ccc(OC(F)(F)Cl)cc3)cnc2N2CC[C@@H](O)C2)cc1=O [Compound 11],54,12
Cn1ccc(-c2cc(C(=O)Nc3ccc(OC(F)(F)Cl)cc3)cnc2N2CC[C@H](F)C2)cc1=O [Compound 17],33,13
Cn1ccc(-c2cc(C(=O)Nc3ccc(OC(F)(F)Cl)cc3)cnc2N2C3COCC2C3)cc1=O [Compound 20],38,31
Cn1ccc(-c2cc(C(=O)Nc3ccc(OC(F)(F)Cl)cc3)cnc2N2C[C@H]3C[C@@H]2CO3)cc1=O [Compound 21],20,–
Cn1ccc(-c2cc(C(=O)Nc3ccc(OC(F)(F)Cl)cc3)cnc2N2C[C@@H]3C[C@H]2CO3)cc1=O [Compound 22],35,–
Cn1ccc(-c2cc(C(=O)Nc3ccc(OC(F)(F)Cl)cc3)cnc2N2CC3CC(C2)O3)cc1=O [Compound 23],18,10
Cn1ccc(-c2cc(C(=O)Nc3ccc(OC(F)(F)Cl)cc3)cnc2N2CCC3(CC2)COC3)cc1=O [Compound 24],12,6.3
Cn1ccc(-c2cc(C(=O)Nc3ccc(OC(F)(F)Cl)cc3)cnc2N2CC(C#N)C2)cc1=O [Compound 25],20,9
Cn1ccc(-c2cc(C(=O)Nc3ccc(OC(F)(F)Cl)cc3)cnc2N2CC(C)(O)C2)cc1=O [Compound 26],53,26
Cn1ccc(-c2cc(C(=O)Nc3ccc(OC(F)(F)Cl)cc3)cnc2N2C[C@H](O)[C@@H](F)C2)cc1=O [Compound 27],67,18
Cn1ccc(-c2cc(C(=O)Nc3ccc(OC(F)(F)Cl)cc3)cnc2N2CCCO2)cc1=O [Compound 29],12,6.8
Cn1ccc(-c2cc(C(=O)Nc3ccc(OC(F)(F)Cl)cc3)cnc2N2CC[C@H](C#N)C2)cc1=O [Compound 30],18,10
Cn1ccc(-c2cc(C(=O)Nc3ccc(OC(F)(F)Cl)cc3)cnc2N2CC[C@@H](C#N)C2)cc1=O [Compound 31],21,12
Cn1ccc(-c2cc(C(=O)Nc3ccc(OC(F)(F)Cl)cc3)cnc2N2C3CCC2COC3)cc1=O [Compound 35],13,16
O=C(Nc1ccc(OC(F)(F)Cl)cc1)c1cnc(N2C3CCC2COC3)c(-c2cnn3c2COCC3)c1 [Compound 37],16,7.8
O=C(Nc1ccc(OC(F)(F)Cl)cc1)c1cnc(N2CC3CC(C2)O3)c(-c2cnn3c2COCC3)c1 [Compound 39],2.4,5.9
Cn1cnc(-c2cc(C(=O)Nc3ccc(OC(F)(F)Cl)cc3)cnc2N2CC[C@@H](O)C2)cc1=O [Compound 46],26,26
C[C@@H]1COCCN1c1ncc(C(=O)Nc2ccc(OC(F)(F)Cl)cc2)cc1-c1cc(=O)n(C)cn1 [Compound 56],12,18
Cn1ncc(-c2cc(C(=O)Nc3ccc(OC(F)(F)Cl)cc3)cnc2N2CC3CC(C2)O3)cc1=O [Compound 83],4.1,3.2
Cn1cccc(-c2cc(C(=O)Nc3ccc(OC(F)(F)Cl)cc3)cnc2N2CCOCC2)c1=O [Compound 86],14,24
O=C(Nc1ccc(OC(F)(F)Cl)cc1)c1cnc(N2CC[C@@H](O)C2)c(-c2cc3nccn3[nH]2)c1 [Compound 102],76,–

# Further compounds by falling GI50 [1], results first:
GI50 [1] [nM],IC50 (K562 cells) [nM],SMILES
11,6.5,Cn1ccc(-c2cc(C(=O)Nc3ccc(OC(F)(F)Cl)cc3)cnc2N2CC3CC3C2)cc1=O (stereo not shown) [Compound 28]
9.1,4.9,Cn1cc(Cl)c(-c2cc(C(=O)Nc3ccc(OC(F)(F)Cl)cc3)cnc2N2CCOCC2)cc1=O [Compound 33]
8.1,4.9,Cn1ccc(-c2cc(C(=O)Nc3ccc(OC(F)(F)Cl)cc3)cnc2N2CC[C@@H](Cl)C2)cc1=O [Compound 18]
8.1,4.2,Cn1cnc(-c2cc(C(=O)Nc3ccc(OC(F)(F)Cl)cc3)cnc2N2CCCC2)cc1=O [Compound 45]
8.1,9.1,Cn1cnc(-c2cc(C(=O)Nc3ccc(OC(F)(F)Cl)cc3)cnc2N2CCC(F)(F)CC2)cc1=O [Compound 64]
7.8,20,Cn1ccc(-c2cc(C(=O)Nc3ccc(OC(F)(F)Cl)cc3)cnc2N2CC3CCC(C2)O3)cc1=O [Compound 34]
7.4,–,O=C(Nc1ccc(OC(F)(F)Cl)cc1)c1cnc(N2C[C@@H]3C[C@H]2CO3)c(-c2cnn3c2COCC3)c1 [Compound 40]
6.4,8.5,Cn1cnc(-c2cc(C(=O)Nc3ccc(OC(F)(F)Cl)cc3)cnc2N2CCOCC2)cc1=O [Compound 54]
6.3,9.2,Cn1cnc(-c2cc(C(=O)Nc3ccc(OC(F)(F)Cl)cc3)cnc2N2CC(F)(F)C2)cc1=O [Compound 72]
6.1,12,Cn1cnc(-c2cc(C(=O)Nc3ccc(OC(F)(F)Cl)cc3)cnc2N2CCSCC2)cc1=O [Compound 67]
6,5.2,CO[C@@H]1CCN(c2ncc(C(=O)Nc3ccc(OC(F)(F)Cl)cc3)cc2-c2cc(=O)n(C)cn2)C1 [Compound 63]
5.7,–,O=C(Nc1ccc(OC(F)(F)Cl)cc1)c1cnc(N2C[C@H]3C[C@@H]2CO3)c(-c2cnn3c2COCC3)c1 [Compound 38]
4.1,6.6,Cn1ncc(-c2cc(C(=O)Nc3ccc(OC(F)(F)Cl)cc3)cnc2N2CC3CCC(C2)O3)cc1=O [Compound 91]
4,2.2,O=C(Nc1ccc(OC(F)(F)Cl)cc1)c1cnc(N2CCOCC2)c(-c2cnn3c2COCC3)c1 [Compound 43]
4,6.3,Cn1cncc(-c2cc(C(=O)Nc3ccc(OC(F)(F)Cl)cc3)cnc2N2CCOCC2)c1=O [Compound 60]
3.5,2.3,O=C(Nc1ccc(OC(F)(F)Cl)cc1)c1cnc(N2CCCC2)c(-c2cnn3c2COCC3)c1 [Compound 42]
3.4,2.1,CO[C@@H]1CCN(c2ncc(C(=O)Nc3ccc(OC(F)(F)Cl)cc3)cc2-c2cnn3c2COCC3)C1 [Compound 41]
2.7,3,Cn1cnc(-c2cc(C(=O)Nc3ccc(OC(F)(F)Cl)cc3)cnc2N2CC[C@@H](F)C2)cc1=O [Compound 53]
2.4,4.5,O=C(Nc1ccc(OC(F)(F)Cl)cc1)c1cnc(N2CC3CCC(C2)O3)c(-c2cnn3c2COCC3)c1 [Compound 44]
2.2,2.2,C[C@@H]1CCN1c1ncc(C(=O)Nc2ccc(OC(F)(F)Cl)cc2)cc1-c1cc(=O)n(C)cn1 [Compound 76]
1.8,2.6,Cn1ncc(-c2cc(C(=O)Nc3ccc(OC(F)(F)Cl)cc3)cnc2N2CCCC2)cc1=O [Compound 47]
